# System: IL-2 secretion by Jurkat T cells
# Assay: Inhibition of IL-2 secretion
# Type: cell-based
# Settings: Homo sapiens; Jurkat T cells stimulated with PHA, 20 to 24 hours, IL-2 by ELISA
# Method: The CRAC channel modulatory activity of the compounds were thus evaluated by measuring the secretion of IL-2 by antigen stimulated T-cells in vitro. Alternatively, such activity can also be evaluated by assay methods known to one skilled in the art.
# Inhibition of IL-2 secretion: Jurkat T cells were seeded at a density of 0.5 to 1 million cells per well in RPMI medium. Test compounds from this invention were added to the cells at different concentrations. This was followed by the addition of PHA, a T cell mitogen after 10 minutes. The cells were then incubated for 20 to 24 hours in a CO2 incubator at 37° C. After incubation with the compounds, cells were centrifuged, the supernatant was collected and processed for ELISA to quantitate the amount of IL-2 secreted. A commercial ELISA kit (R&D Systems, Inc. Minneapolis, Minn., USA) was used to estimate the IL-2 concentrations. Amount of IL-2 secreted by cells stimulated with PHA was considered as a 100% maximal signal and the decrease in amount of IL-2 secreted by cells treated with the test compounds was expressed as percent inhibition of the maximal signal. The dose response data was analyzed using 4-parametric sigmoidal dose response (variable slope) curve-fit.
row,SMILES,IC50
1,"CN1C(=O)COc2cc(-c3cnc(NC(=O)c4c(F)cccc4F)cn3)c(C3CC3)cc21 [Example 116, N-(5-(6-Cyclopropyl-4-methyl-3-oxo-3,4-dihydro-2H-benzo[b][1,4]oxazin-7-yl)pyrazin-2-yl)-2,6-difluorobenzamide]",< 25 nM
2,"Cc1cc2oc(=O)n(C)c2cc1-c1ccc(C(=O)Nc2c(F)cccc2F)s1 [Example 140, N-(2,6-Difluorophenyl)-5-(3,6-dimethyl-2-oxo-2,3-dihydrobenzo[d]oxazol-5-yl)thiophene-2-carboxamide]",< 25 nM
3,"Cc1cc2c(cc1-c1ccc(NCc3c(F)cccc3F)cc1)OCC(=O)N2C [Example 127, 7-(4-((2,6-Difluorobenzyl)amino)phenyl)-4,6-dimethyl-2H-benzo [b][1,4]oxazin-3(4H)-one]",50 to 100 nM
4,"CN1C(=O)COc2cc(-c3ccc(NC(=O)c4c(F)cccc4F)cc3)c(C3CC3)cc21 [Example 113, N-(4-(6-Cyclopropyl-4-methyl-3-oxo-3,4-dihydro-2H-benzo[b][1,4]oxazin-7-yl)phenyl)-2,6-difluorobenzamide]",< 25 nM
5,"CCc1cc2c(cc1-c1ccc(C(=O)Nc3c(F)cncc3F)cc1)N(C)C(=O)CO2 [Example 135, N-(3,5-Difluoropyridin-4-yl)-4-(7-ethyl-4-methyl-3-oxo-3,4-dihydro-2H-benzo[b][1,4]oxazin-6-yl)benzamide]",100 to 500 nM
6,"Cc1cc2c(cc1-c1cnc(NC(=O)c3c(F)cccc3F)cn1)OCC(=O)N2C [Example 126, N-(5-(4,6-Dimethyl-3-oxo-3,4-dihydro-2H-benzo[b][1,4]oxazin-7-yl)pyrazin-2-yl)-2,6-difluorobenzamide]",100 to 500 nM
7,"CCc1c(-c2ccc(NC(=O)c3c(F)cccc3F)cc2)cnc2c1oc(=O)n2C [Example 5, N-(4-(7-Ethyl-3-methyl-2-oxo-2,3-dihydrooxazolo [4,5-b]pyridin-6-yl)phenyl)-2,6-difluorobenzamide]",< 25 nM
8,"Cn1c(=O)oc2cc(C3CC3)c(-c3ccc(C(=O)Nc4c(F)cncc4F)cc3)cc21 [Example 93, 4-(6-Cyclopropyl-3-methyl-2-oxo-2,3-dihydrobenzo[d]oxazol-5-yl)-N-(3,5-difluoropyridin-4-yl)benzamide]",< 25 nM
9,"Cn1c(=O)oc2c(C3CC3)c(-c3ccc(NC(=O)c4c(F)cccc4F)nc3)ccc21 [Example 25, N-(5-(7-Cyclopropyl-3-methyl-2-oxo-2,3-dihydrobenzo[d]oxazol-6-yl)pyridin-2-yl)-2,6-difluorobenzamide]",25 to 50 nM
10,"Cn1c(=O)oc2c(C3CC3)c(-c3ccc(NC(=O)c4c(F)cccc4F)cc3)cnc21 [Example 9, N-(4-(7-Cyclopropyl-3-methyl-2-oxo-2,3-dihydrooxazolo[4,5-b]pyridin-6-yl)phenyl)-2,6-difluorobenzamide]",25 to 50 nM
11,"Cc1cc2oc(=O)n(C)c2cc1-c1ccc(NC(=O)c2c(C)cccc2F)cc1 [Example 49, N-(4-(3,6-Dimethyl-2-oxo-2,3-dihydrobenzo [d]oxazol-5-yl)phenyl)-2-fluoro-6-methylbenzamide]",25 to 50 nM
12,"Cn1c(=O)oc2c(C3CC3)c(-c3ccc(NC(=O)c4c(F)cccc4Cl)cc3)ccc21 [Example 101, 2-Chloro-N-(4-(7-cyclopropyl-3-methyl-2-oxo-2,3-dihydrobenzo[d]oxazol-6-yl)phenyl)-6-fluorobenzamide]",< 25 nM
13,"Cn1c(=O)oc2cc(-c3ccc(NC(=O)c4c(F)cccc4F)cc3)c(C3CC3)nc21 [Example 36, N-(4-(5-Cyclopropyl-3-methyl-2-oxo-2,3-dihydrooxazolo [4,5-b]pyridin-6-yl)phenyl)-2,6-difluorobenzamide]",< 25 nM
14,"CCc1cc2c(cc1-c1ccc(C(=O)Nc3c(F)cncc3F)cc1)oc(=O)n2C [Example 90, N-(3,5-Difluoropyridin-4-yl)-4-(5-ethyl-3-methyl-2-oxo-2,3-dihydrobenzo [d]oxazol-6-yl) benzamide]",25 to 50 nM
15,"Cn1c(=O)oc2cc(-c3cnc(NC(=O)c4c(F)cccc4F)cn3)c(C3CC3)cc21 [Example 72, N-(5-(5-Cyclopropyl-3-methyl-2-oxo-2,3-dihydrobenzo [d]oxazol-6-yl)pyrazin-2-yl)-2,6-difluorobenzamide]",50 to 100 nM
16,"Cc1cc2oc(=O)n(C(F)F)c2cc1-c1ccc(NC(=O)c2c(F)cccc2F)cc1 [Example 32, N-(4-(3-(Difluoromethyl)-6-methyl-2-oxo-2,3-dihydrobenzo[d]oxazol-5-yl)phenyl)-2,6-difluorobenzamide]",< 25 nM
17,"CCc1cc2c(cc1-c1ccc(NC(=O)c3c(F)cccc3F)nc1)oc(=O)n2C [Example 69, N-(5-(5-Ethyl-3-methyl-2-oxo-2,3-dihydrobenzo [d]oxazol-6-yl)pyridin-2-yl)-2,6-difluoro benzamide]",25 to 50 nM
18,"Cc1cc2c(cc1-c1ccc(NC(=O)c3c(F)cccc3F)cc1)oc(=O)n2C [Example 56, N-(4-(3,5-Dimethyl-2-oxo-2,3-dihydrobenzo [d]oxazol-6-yl)phenyl)-2,6-difluorobenzamide]",< 25 nM
19,"Cc1cc2oc(=O)n(CC3CC3)c2cc1-c1ccc(NC(=O)c2c(F)cccc2F)cc1 [Example 29, N-(4-(3-(Cyclopropylmethyl)-6-methyl-2-oxo-2,3-dihydrobenzo[d]oxazol-5-yl)phenyl)-2,6-difluorobenzamide]",25 to 50 nM
20,"Cc1nc2c(cc1-c1ccc(NC(=O)c3c(F)cccc3F)cc1)oc(=O)n2C [Example 38, N-(4-(3,5-dimethyl-2-oxo-2,3-dihydrooxazolo [4,5-b]pyridin-6-yl)phenyl)-2,6-difluorobenzamide]",< 25 nM
21,"Cc1cc2oc(=O)n(C)c2cc1-c1ccc(NC(=O)c2c(F)cccc2F)nc1 [Example 53, N-(5-(3,6-Dimethyl-2-oxo-2,3-dihydrobenzo [d]oxazol-5-yl)pyridin-2-yl)-2,6-difluoro benzamide]",25 to 50 nM
22,"CCc1cc2oc(=O)n(C)c2cc1-c1ccc(NC(=O)c2c(F)cccc2F)cn1 [Example 81, N-(6-(6-Ethyl-3-methyl-2-oxo-2,3-dihydrobenzo [d]oxazol-5-yl)pyridin-3-yl)-2,6-difluoro benzamide]",50 to 100 nM
23,"Cc1cc2oc(=O)n(CCF)c2cc1-c1ccc(NC(=O)c2c(F)cccc2F)cc1 [Example 30, 2,6-Difluoro-N-(4-(3-(2-fluoroethyl)-6-methyl-2-oxo-2,3-dihydrobenzo[d]oxazol-5-yl)phenyl)benzamide]",< 25 nM
24,"CCc1cc2oc(=O)n(C)c2cc1-c1ccc(NC(=O)c2c(F)cccc2F)cc1 [Example 85, N-(4-(6-Ethyl-3-methyl-2-oxo-2,3-dihydrobenzo [d]oxazol-5-yl)phenyl)-2,6-difluorobenzamide]",< 25 nM
25,"CCn1c(=O)oc2cc(C)c(-c3ccc(NC(=O)c4c(F)cccc4F)cc3)cc21 [Example 28, N-(4-(3-Ethyl-6-methyl-2-oxo-2,3-dihydrobenzo[d]oxazol-5-yl)phenyl)-2,6-difluorobenzamide]",50 to 100 nM
26,"Cc1cc2c(cc1-c1ccc(NC(=O)c3c(F)cccc3F)cc1)OCC(=O)N2C [Example 123, N-(4-(4,6-Dimethyl-3-oxo-3,4-dihydro-2H-benzo[b][1,4]oxazin-7-yl)phenyl)-2,6-difluorobenzamide]",< 25 nM
27,"Cn1c(=O)oc2cc(C3CC3)c(-c3ccc(NC(=O)c4c(F)cccc4F)cc3)cc21 [Example 94, N-(4-(6-Cyclopropyl-3-methyl-2-oxo-2,3-dihydrobenzo [d]oxazol-5-yl)phenyl)-2,6-difluorobenzamide]",< 25 nM
